# Data: US20090264421A1 (priority 2007, published 2009)
# Experiments:
# [1] = molecular target: T1, TrxR1 (Rattus norvegicus, UniProt O89049); assay type: biochemical; set-up: rat liver thioredoxin reductase; purchased Sigma (St. Louis, Mo.); details: mass spectroscopy; data not shown
# T1 sequence (O89049 1-499): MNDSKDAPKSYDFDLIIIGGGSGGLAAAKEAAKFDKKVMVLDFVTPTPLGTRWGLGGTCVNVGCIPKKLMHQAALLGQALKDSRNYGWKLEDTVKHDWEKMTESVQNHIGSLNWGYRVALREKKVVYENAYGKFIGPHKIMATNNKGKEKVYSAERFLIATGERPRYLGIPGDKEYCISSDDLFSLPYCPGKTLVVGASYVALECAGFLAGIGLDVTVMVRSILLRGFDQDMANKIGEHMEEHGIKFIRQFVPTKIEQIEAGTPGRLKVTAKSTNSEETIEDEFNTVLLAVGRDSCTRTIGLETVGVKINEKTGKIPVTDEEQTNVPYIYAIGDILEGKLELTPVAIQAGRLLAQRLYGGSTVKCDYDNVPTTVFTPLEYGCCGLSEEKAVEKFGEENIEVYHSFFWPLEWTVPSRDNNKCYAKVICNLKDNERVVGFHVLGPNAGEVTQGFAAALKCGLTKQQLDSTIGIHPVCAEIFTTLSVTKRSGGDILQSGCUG
# Procedure: Samples were allowed to react at 22° C. for 15 min and then processed for analysis by desalting and fractionating using C18 ZipTips (Millipore Corporation, Bedford, Mass.). For the DTT/chaetocin reaction, the reaction proceeded for 20 min and was then spun down to remove precipitated insulin before loading onto ZipTips. ZipTips were conditioned with 60% acetonitrile:39% water:1% acetic acid and equilibrated with 1% acetic acid. Samples were acidified with glacial acetic acid and loaded onto an equilibrated ZipTip and washed with 1% acetic acid. Fractions were step-eluted off the ZipTip using 10 μl of 1% acetic acid in water containing 20, 30, 40, or 60% acetonitrile. Collected fractions were injected by loop injection (2 μl) directly into the mass spectrometer using a mobile phase of 30% acetonitrile:69% water:1% acetic acid at 5 μl/min. Mass spectra were collected on an Agilent Technologies LC/MSD-TOF mass spectrometer in positive electrospray ionization mode over a m/z range of 400 to 1500. The capillary, fragmentor, skimmer, and OCT RF voltages (3500, 185, 60, 200 volts, respectively) were optimized to enhance signal and minimize instrument fragmentation.
# [2] = molecular target: T1, TrxR1; test: Thioredoxin reductase activity assay (DTNB method); assay type: biochemical; set-up: rat liver thioredoxin reductase; purchased Sigma (St. Louis, Mo.); details: cell-free; read-out: IC50, TrxR1-initiated turnover of DTNB
# Procedure: HeLa cells were obtained from ATCC.
# Final concentrations were 0.0005 U/μL of enzyme and 0.24 mM NADPH in the presence of chaetocin as indicated in a 100 μL reaction. The reaction was started by the addition of DTNB (3 mM) and the change in absorbance at 405 nm was monitored in a plate reader. Activity was calculated as the increase in absorbance between 2 and 5 min after DTNB addition.
smiles,measurement,setting,value
CN1C(=O)[C@@]23C[C@]4([C@]56C[C@@]78SS[C@@](CO)(C(=O)N7[C@H]5Nc5ccccc56)N(C)C8=O)c5ccccc5N[C@@H]4N2C(=O)[C@]1(CO)SS3 [chaetocin],covalent adduct with TrxR1,[1],no evidence of a covalent chaetocin-TrxR1 adduction
same,IC50,[2],~4 µM
